# Measurements taken from patent US11230558B2, “Activators of autophagic flux and phospholipase D and clearance of protein aggregates including tau and treatment of proteinopathies” (THE TRUSTEES OF COLUMBIA UNIVERSITY IN THE CITY OF NEW YORK, priority 2015, dated 2022).
# Tests used:
# [1] = Photodiode array (PDA) detection in mouse brain; format: in vivo; conditions: FIG. 1
# Text: FIG. 1 is a graph showing a photodiode array (PDA) spectrum of WHYKD8 in mouse brain.
# A photodiode array (PDA) was used to detect WHYKD8 in mouse brain (FIG. 1).
# Autophagy Markers = test: Autophagy markers (Cyto-ID assay) in HEK 293 cells expressing mKate2 Tau; format: cell-based, Human; conditions: HEK 293 mKate2 Tau cells
# Method: The dye used in the kit prevents its accumulation within lysosomes, but enables labelling of vacuoles associated with the autophagy pathway using the LC3 biomarker.
# The test compounds (along with CytoID™ dye and Hoechst stain) were added to the cells and incubated for 3 hours. Reference compounds were also used in each plate, Rapamycin was used for autophagy induction and chloroquine was used for lysosomal inhibition. After 3 hours test compound was aspirated off and kept. Cells were then washed and read using a fluorescence plate reader. Hoescht, Cyto-ID™ and mKate2 were measured using 3 distinct wavelengths on the plate reader. The Hoescht measurement allowed normalisation of results across wells. After reading, test compound was re-added and the cells are left for a further 21 hours. At the 24 hour time point cells were once again washed and plates read using the fluorescence plate reader.
# 2) Test samples were prepared in warm FluoroBrite™ DMEM and with 10% FBS and 1% NEAA (FB-DMEM). […]
# 5) Treatment plate was then washed quickly 3 times with warm FB-DMEM (100 μL/well). […] At this point, the plate was ready for reading. See details in Reading Plate section. Hoescht was read at Excitation wavelength (Ex)=355 nm & Emission wavelength (Em)=446 nm. mKate2 was read at Ex=575 nm & Em=630 nm. Cyto-ID™ was read at Ex=463 nm & Em=534 nm. […]
# PLD2 = molecular target: T1, PLD2 (Homo sapiens, UniProt O14939); test: PLD2 activity: Proteostat/mKate2 with PLD1 inhibitor VU0150669; format: cell-based
# T1 construct: endogenous in cells; host or cells: HEK 293 Jump-In cells expressing mKate2-Tau
# T1 sequence (O14939 whole entry): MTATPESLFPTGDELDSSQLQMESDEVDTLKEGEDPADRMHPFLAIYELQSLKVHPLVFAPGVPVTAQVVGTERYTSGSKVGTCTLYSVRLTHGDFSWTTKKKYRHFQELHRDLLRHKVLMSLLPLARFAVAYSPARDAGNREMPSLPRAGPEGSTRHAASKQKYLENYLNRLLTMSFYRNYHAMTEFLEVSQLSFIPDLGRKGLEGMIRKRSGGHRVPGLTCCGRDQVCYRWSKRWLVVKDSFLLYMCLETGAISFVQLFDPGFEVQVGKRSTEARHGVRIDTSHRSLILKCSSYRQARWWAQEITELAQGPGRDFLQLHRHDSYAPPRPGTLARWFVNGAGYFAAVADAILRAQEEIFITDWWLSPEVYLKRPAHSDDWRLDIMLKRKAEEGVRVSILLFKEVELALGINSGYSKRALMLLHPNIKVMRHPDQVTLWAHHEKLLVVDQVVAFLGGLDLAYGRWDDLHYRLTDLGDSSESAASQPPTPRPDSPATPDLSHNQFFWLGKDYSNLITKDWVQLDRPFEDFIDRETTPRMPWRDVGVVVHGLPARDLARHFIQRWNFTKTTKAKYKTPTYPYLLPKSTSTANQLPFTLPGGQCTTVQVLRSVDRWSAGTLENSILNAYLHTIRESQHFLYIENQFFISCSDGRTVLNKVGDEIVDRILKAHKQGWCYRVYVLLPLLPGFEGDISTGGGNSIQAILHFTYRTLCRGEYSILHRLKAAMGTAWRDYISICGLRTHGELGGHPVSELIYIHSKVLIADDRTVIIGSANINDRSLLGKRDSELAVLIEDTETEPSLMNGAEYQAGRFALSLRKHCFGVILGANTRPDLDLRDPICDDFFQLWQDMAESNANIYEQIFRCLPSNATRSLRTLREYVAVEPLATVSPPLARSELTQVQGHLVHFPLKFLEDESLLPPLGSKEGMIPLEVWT
# Method: The assay was run in e18 primary cortical neurons from PLD1 or PLD2 KO mice cultured for 14 days. Alternatively, the assay can be run in the cells described above in the presence of excess PLD1 or PLD2 inhibitor to preclude that particular action from contributing to the effect of the drug.
# 4) On the day of experiment, cells were washed in warmed HBSS twice before media containing test compound (n=3 per compound per dose), inhibitor (355 nM ML298 or 50 nM VU0150669), or vehicle are added to the wells (1.5 mL in 6 well, 600 μL in 12 well). Plates were incubated for 24 hours at 37° C. with 5% CO2.
# [2] = tested on: HEK 293 (Human Embryo Kidney) cell line
# Method: The cells were grown in the presence of the antibiotic doxycycline. When the antibiotic is removed the cells produce Tau (which can be quantified), thus allowing the test compounds' effects on Tau's production to be compared. Doxycycline was removed for 72 hours prior to exposure to the test compounds to promote sufficient Tau production. Cells were subsequently plated into plates for each of the assays described below.
compound,measurement,setting,value
Oc1ccc(CCNc2ncnc3ccc(Cl)cc23)cc1 [WHYKD8],detection in mouse brain by photodiode array,[1],readily detected
Fc1ccc2ncnc(SC3CCOCC3)c2c1 [WHYKD19],% Increase Autophagy Markers,Autophagy Markers,350%
c1cnc2c(SC3CCCC3)ncnc2c1 [WHYKD36],Proteostat PLD2/PLD1 ratio,PLD2; ratio of Proteostat values,1.5
same,mKate2 PLD2/PLD1 ratio,PLD2; ratio of mKate2 values,1.7
same,CC50,[2],67 µM
